Measured values as given in patent US7863453B2, “Tartrate salt of isofagomine and methods of use” (Amicus Therapeutics, Inc., priority 2006, dated 2011).
“And” between values parts separate entries of the source, which are not always exact repeats. Equal values may be shown once. Where a name gives a salt, the structure may show the parent alone. Read-outs that look alike come from different tables or passages of the source.

How the values were obtained:
mutant GCase = assay: Ex vivo response study, GCase levels in macrophages derived from Gaucher patients; format: cell-based, human
Procedure: The intracellular enhancement activity of isofagomine L-(+)-tartrate was investigated with fibroblasts established from Gaucher patients. To evaluate the effects of IFG on mutant GCase levels, an ex vivo response study with macrophages and EBV-transformed lymphoblasts derived from peripheral leukocytes of 40 patients was conducted.
The study included 21 males with type I Gaucher disease, 1 person with type III Gaucher disease, and 18 females with type I Gaucher disease. Patients ranged in age from 7 to 83 years, and 38 of 40 patients were on enzyme replacement therapy (ERT).

[1] = Phase I clinical studies in healthy volunteers, safety; format: in vivo, human
Procedure: (§1) Isofagomine tartrate is a pharmacological chaperone in development for the treatment of the lysosomal storage disorder Gaucher disease. Using cell-based and animal models we have shown that isofagomine increases cellular levels of glucocerebrosidase (GCase), the enzyme deficient in Gaucher disease. Randomized double-blind Phase I clinical studies were performed in 72 healthy volunteers, (39 male, 33 female). Isofagomine tartrate was orally administered as an aqueous solution. In a first-in-human single ascending dose study, doses of 8, 25, 75, 150 (two cohorts), and 300 mg were administered (6 active, 2 placebo in each cohort). In a multiple ascending dose study, doses of 25, 75, and 225 mg were administered daily for seven days (6 active, 2 placebo in each cohort).

[2] = Phase I multiple ascending dose study, pharmacokinetics; format: in vivo, human; details: after 7 days of oral administration
Procedure: as §1
(§2) Mean plasma levels peaked at 3.4 hr. […] (SEM: 2 hr.).

[3] = Phase I single ascending dose study, pharmacokinetics; format: in vivo, human
Procedure: as §1, §2

[4] = Moisture uptake studies (saturated salt solutions); format: physicochemical; details: for Weight gain (%): single samples; for Average weight gain (%): average of 3 samples
Text: The moisture uptake test results of six different isofagomine tartrate samples prepared according to present invention are summarized in Tables 4 and 5.

GCase = target: T1, GCase (Homo sapiens, UniProt P04062); assay: Phase I multiple-dose study, GCase activity in isolated white blood cells; format: in vivo
T1 construct: endogenous in cells; host or cells: isolated white blood cells of healthy volunteers dosed orally
T1 sequence (P04062 40-536): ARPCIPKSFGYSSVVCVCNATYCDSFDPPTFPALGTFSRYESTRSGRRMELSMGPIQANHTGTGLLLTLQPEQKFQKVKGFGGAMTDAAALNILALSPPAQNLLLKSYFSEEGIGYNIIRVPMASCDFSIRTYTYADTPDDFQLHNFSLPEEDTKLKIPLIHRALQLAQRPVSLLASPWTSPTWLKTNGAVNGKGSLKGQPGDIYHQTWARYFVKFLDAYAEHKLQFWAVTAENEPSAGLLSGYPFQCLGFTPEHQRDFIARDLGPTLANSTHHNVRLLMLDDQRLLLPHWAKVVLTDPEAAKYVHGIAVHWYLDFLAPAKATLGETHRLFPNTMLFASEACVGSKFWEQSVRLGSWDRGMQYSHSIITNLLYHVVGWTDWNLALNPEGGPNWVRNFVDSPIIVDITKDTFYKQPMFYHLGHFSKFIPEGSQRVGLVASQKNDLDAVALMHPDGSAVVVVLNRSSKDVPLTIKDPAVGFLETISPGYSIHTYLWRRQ
Procedure: as §1
In the multiple-dose study, GCase activity in isolated white blood cells was measured at days 1, 3, 5 and 7 during administration of isofagomine tartrate, and at days 9, 14 and 21 during the post-treatment washout period. […] The increase in enzyme level was dose-related, reaching approximately 3.5-fold above baseline levels.

[5] = Powder characteristics (density, flowability); format: physicochemical
Text: Meanwhile, isofagomine tartrate according to the present invention has good powder characteristics, e.g., crystal size, density, and flowability, that are suitable for a pharmaceutical manufacturing process. Tables 2 and 3 summarize powder characteristics of an isofagomine tartrate sample prepared according to the present invention. […] Most batches provided more than 98%, or at minimum 90%, of isofagomine tartrate with a particle size of about 1200 μm or less.

[6] = animals, background statement; cited from earlier work
[7] = target: T2, recombinant human acid β-glucosidase (GCase) (Homo sapiens, UniProt P04062); details: background statement; cited from earlier work
T2 sequence (P04062 40-536): T1 sequence (P04062 40-536)

OC[C@H]1CNC[C@@H](O)[C@@H]1O [isofagomine tartrate, Isofagomine tartrate]
increase in GCase levels (average) (mutant GCase; macrophages from Gaucher patients, 32 of 34 responding, treated 5 days, dose-dependent): 2.8 fold | serious adverse events ([1]; both studies): No serious adverse events occurred | treatment-emergent adverse events ([1]; both studies): mostly mild | tolerability ([1]; healthy volunteers, oral aqueous solution, single 8-300 mg and 25-225 mg daily for seven days): generally well tolerated at all doses | pharmacokinetic behavior versus dose [2]: linear with dose | Tmax ([3]; both sexes, human, plasma, single-dose study, oral, SEM 0.6 hr, read-out: time at which mean plasma levels peaked (Tmax)): 3.4 h | half-life ([3]; both sexes, human, plasma, single-dose study, oral, SEM 2 hr, read-out: plasma elimination half-life (converted)): 14 h | systemic exposure via the oral route ([3]; healthy volunteers): good systemic exposure | plasma AUC and Cmax versus dose ([3]; single-dose study, 8-300 mg): linearly correlated with administered dose | hygroscopicity [4]: not hygroscopic | Weight gain (%) ([4]; NaBr saturated solution, 24 hours, RH 59%, 20.5 °C): 0.06% and 0.00% and 0.05% | Average weight gain (%) ([4]; NaBr saturated solution, 24 hours, RH 59%): 0.04% | Weight gain (%) ([4]; NaBr saturated solution, 48 hours, RH 59%, 20.8 °C): 0.04% and 0.02% and 0.10% | Average weight gain (%) ([4]; NaBr saturated solution, 48 hours, RH 59%): 0.05% | Weight gain (%) ([4]; NaBr saturated solution, 8 days, RH 59%, 20.2 °C): 0.06% and 0.07% and 0.10% | Average weight gain (%) ([4]; NaBr saturated solution, 8 days, RH 59%): 0.08% | Weight gain (%) ([4]; NaCl saturated solution, 24 hours, RH 72%, 20.5 °C): 0.02% and 0.00% and 0.08% | Average weight gain (%) ([4]; NaCl saturated solution, 24 hours, RH 72%): 0.04% | Weight gain (%) ([4]; NaCl saturated solution, 48 hours, RH 71%, 20.8 °C): 0.05% and 0.00% and 0.8% | Average weight gain (%) ([4]; NaCl saturated solution, 48 hours, RH 71%): 0.05% | Weight gain (%) ([4]; NaCl saturated solution, 8 days, RH 72%, 20.2 °C): 0.10% and 0.00% and 0.15% | Average weight gain (%) ([4]; NaCl saturated solution, 8 days, RH 72%): 0.08% | moisture uptake ([4]; after exposure to 75% RH for 8 days): about 0.08% | increase in GCase level above baseline (GCase; isolated white blood cells, healthy volunteers, 25-225 mg daily for seven days, dose-related, maximum reached): approximately 3.5 fold | GCase levels after removal of the drug (GCase; post-treatment washout period): return to near baseline levels by day 21 | Bulk Density [5]: 0.44 g/mL | Carr Index [5]: 15% | Tap Density [5]: 0.52 g/mL | Bulk Density ([5]; listed as Isofagomine tartrate): around 0.44 g/ml | Carr Index ([5]; listed as Isofagomine tartrate): 15%

OC[C@H]1CNC[C@@H](O)[C@@H]1O [isofagomine, (3R,4R,5R)-5-(hydroxymethyl)-3,4-piperidinediol]
effect on GCase levels in cells from patients with different genotypes (mutant GCase; N370S/N370S, N370S/L444P, N370S/84insG, N370S/R163X, N370S/Y212H, L444P/del 136T, L444P/F216Y, L444P/L174F, G202R/R463C, K79N/complex B exon 9/10): significantly increased GCase levels | concentration at maximum enhancement of GCase (mutant GCase; macrophages): about 30 μM | blood-brain barrier crossing [6]: cross the blood-brain barrier | accumulation [2]: no unexpected accumulation | inhibition of GCase [7]: potent inhibitor
